Laboratory results reported in US10100058B2, “Fused heterocyclic compounds as CaM kinase inhibitors” (Gilead Sciences, Inc., priority 2016, dated 2018).

Target: recombinant CaMKIIδ (Homo sapiens (Human), UniProt Q13557)
Assay: CaMKIIδ biochemical assay (HTRF)
Conditions: 10 pM CaMKIIδ, 110 nM calmodulin, 12 μM ATP, 1 hour; read-out: CAMKIID-HTRF-384V2 (IC50 - nM)
Procedure: CaMKIIδ Biochemical Assay
The biochemical activity of recombinant CaMKIIδ was measured by monitoring the phosphorylation of a target peptide using Homogenous Time Resolved Fluorescence (HTRF) technology from CisBio Bioassays.

SMILES | IC50
CCN(CC)[C@@H](C)CNC(=O)c1cc(-c2cnn3ccc(-c4cccs4)nc23)nc(N2CC[C@H]2C(=O)N(C)O)c1 [Example 298, N—((S)-2-(diethylamino)propyl)-2-((S)-2-(hydroxy(methyl)carbamoyl)azetidin-1-yl)-6-(5-(thiophen-2-yl)pyrazolo[1,5-a]pyrimidin-3-yl)isonicotinamide] | 0.23 nM
CCN(CC)[C@@H](C)CNC(=O)c1cc(-c2cnn3ccc(-c4cccs4)nc23)nc(N2CC[C@H]2C(N)=O)c1 [Example 299, 2-((S)-2-carbamoylazetidin-1-yl)-N—((S)-2-(diethylamino)propyl)-6-(5-(thiophen-2-yl)pyrazolo[1,5-a]pyrimidin-3-yl)isonicotinamide] | 0.22 nM
CCN(CC)[C@@H](C)CNC(=O)c1cc(-c2cnn3ccc(-c4cccs4)nc23)nc(N2CC[C@H]2C(=O)NCC#N)c1 [Example 300, 2-((S)-2-((cyanomethyl)carbamoyl)azetidin-1-yl)-N—((S)-2-(diethylamino)propyl)-6-(5-(thiophen-2-yl)pyrazolo[1,5-a]pyrimidin-3-yl)isonicotinamide] | 0.58 nM
CCN(CC)[C@@H](C)CNC(=O)c1cc(-c2cnn3ccc(-c4cccs4)nc23)nc(N2CC[C@H]2C(=O)NCCOC)c1 [Example 301, N—((S)-2-(diethylamino)propyl)-2-((S)-2-((2-methoxyethyl)carbamoyl)azetidin-1-yl)-6-(5-(thiophen-2-yl)pyrazolo[1,5-a]pyrimidin-3-yl)isonicotinamide] | 0.48 nM
CCN(CC)[C@@H](C)CNC(=O)c1cc(-c2cnn3ccc(-c4cccs4)nc23)nc(N2CC[C@H]2C(=O)N2CC(S(C)(=O)=O)C2)c1 [Example 302, N—((S)-2-(diethylamino)propyl)-2-((S)-2-(3-(methylsulfonyl)azetidine-1-carbonyl)azetidin-1-yl)-6-(5-(thiophen-2-yl)pyrazolo[1,5-a]pyrimidin-3-yl)isonicotinamide] | 0.2 nM
CCN(CC)[C@@H](C)CNC(=O)c1cc(-c2cnn3ccc(-c4cccs4)nc23)nc(N2CC[C@H]2C(=O)N2CCS(=O)(=O)CC2)c1 [Example 303, N—((S)-2-(diethylamino)propyl)-2-((S)-2-(1,1-dioxidothiomorpholine-4-carbonyl)azetidin-1-yl)-6-(5-(thiophen-2-yl)pyrazolo[1,5-a]pyrimidin-3-yl)isonicotinamide] | 0.16 nM
CCN(CC)[C@@H](C)CNC(=O)c1cc(-c2cnn3ccc(-c4cccs4)nc23)nc(N2CC[C@H]2C(=O)N2CC(O)C2)c1 [Example 304, N—((S)-2-(diethylamino)propyl)-2-((S)-2-(3-hydroxyazetidine-1-carbonyl)azetidin-1-yl)-6-(5-(thiophen-2-yl)pyrazolo[1,5-a]pyrimidin-3-yl)isonicotinamide] | 0.17 nM
CNC(=O)[C@@H]1CCN1c1cc(C(=O)NC[C@H](C)N)cc(-c2cnn3ccc(-c4cccs4)nc23)n1 [Example 305, N—((S)-2-aminopropyl)-2-((S)-2-(methylcarbamoyl)azetidin-1-yl)-6-(5-(thiophen-2-yl)pyrazolo[1,5-a]pyrimidin-3-yl)isonicotinamide] | 51.7 nM
CCN[C@@H](C)CNC(=O)c1cc(-c2cnn3ccc(-c4cccs4)nc23)nc(N2CC[C@H]2C(=O)NC)c1 [Example 306, N—((S)-2-(ethylamino)propyl)-2-((S)-2-(methylcarbamoyl)azetidin-1-yl)-6-(5-(thiophen-2-yl)pyrazolo[1,5-a]pyrimidin-3-yl)isonicotinamide] | 10.6 nM
CCN(CC)[C@@H](C)CNC(=O)c1cc(-c2cnn3ccc(-c4ccns4)nc23)nc(N2CC[C@H]2C(=O)NC)c1 [Example 307, N—((S)-2-(diethylamino)propyl)-2-(5-(isothiazol-5-yl)pyrazolo[1,5-a]pyrimidin-3-yl)-6-((S)-2-(methylcarbamoyl)azetidin-1-yl)isonicotinamide] | 0.27 nM
CCN(CC)[C@@H](C)CNC(=O)c1cc(-c2cnn3ccc(-c4cccs4)nc23)nc(N2CC[C@H]2c2nc(C)no2)c1 [Example 308, N—((S)-2-(diethylamino)propyl)-2-((S)-2-(3-methyl-1,2,4-oxadiazol-5-yl)azetidin-1-yl)-6-(5-(thiophen-2-yl)pyrazolo[1,5-a]pyrimidin-3-yl)isonicotinamide] | 0.71 nM
CCN(CC)[C@@H](C)CNC(=O)c1cc(-c2cnn3ccc(-c4ccccc4)nc23)nc(N2CC[C@H]2C(=O)NC)c1 [Example 309, N—((S)-2-(diethylamino)propyl)-2-((S)-2-(methylcarbamoyl)azetidin-1-yl)-6-(5-phenylpyrazolo[1,5-a]pyrimidin-3-yl)isonicotinamide] | 2.16 nM
CCN(CC)[C@@H](C)CNC(=O)c1cc(-c2cnn3ccc(-c4cccs4)nc23)nc(N2CC[C@H](C(=O)NC)C2)c1 [Example 310, N—((S)-2-(diethylamino)propyl)-2-((S)-3-(methylcarbamoyl)pyrrolidin-1-yl)-6-(5-(thiophen-2-yl)pyrazolo[1,5-a]pyrimidin-3-yl)isonicotinamide] | 0.25 nM
CCN(CC)[C@@H](C)CNC(=O)c1cc(-c2cnn3ccc(-c4cccs4)nc23)nc(N2CC[C@@H](C(=O)NC)C2)c1 [Example 311, N—((S)-2-(diethylamino)propyl)-2-((R)-3-(methylcarbamoyl)pyrrolidin-1-yl)-6-(5-(thiophen-2-yl)pyrazolo[1,5-a]pyrimidin-3-yl)isonicotinamide] | 0.23 nM
CCN(CC)[C@@H](C)CNC(=O)c1cc(-c2cnn3ccc(-c4cccs4)nc23)nc(N2CC[C@@H](C#N)C2)c1 [Example 312, 2-((R)-3-cyanopyrrolidin-1-yl)-N—((S)-2-(diethylamino)propyl)-6-(5-(thiophen-2-yl)pyrazolo[1,5-a]pyrimidin-3-yl)isonicotinamide] | 0.21 nM
CCN(CC)[C@@H](C)CNC(=O)c1cc(-c2cnn3ccc(-c4cccs4)nc23)nc(N2CCNC(=O)C2)c1 [Example 314, (S)—N-(2-(diethylamino)propyl)-2-(3-oxopiperazin-1-yl)-6-(5-(thiophen-2-yl)pyrazolo[1,5-a]pyrimidin-3-yl)isonicotinamide] | 0.14 nM
CCN(CC)[C@@H](C)CNC(=O)c1cc(-c2cnn3ccc(-c4cccs4)nc23)nc(N2CC[C@H](N)C2)c1 [Example 317, 2-((S)-3-aminopyrrolidin-1-yl)-N—((S)-2-(diethylamino)propyl)-6-(5-(thiophen-2-yl)pyrazolo[1,5-a]pyrimidin-3-yl)isonicotinamide] | 0.07 nM
CCN(CC)[C@@H](C)CNC(=O)c1cc(-c2cnn3ccc(-c4cccs4)nc23)nc(N2CC[C@@H](N)C2)c1 [Example 318, 2-((R)-3-aminopyrrolidin-1-yl)-N—((S)-2-(diethylamino)propyl)-6-(5-(thiophen-2-yl)pyrazolo[1,5-a]pyrimidin-3-yl)isonicotinamide] | 0.05 nM
CCN(CC)[C@@H](C)CNC(=O)c1cc(-c2cnn3ccc(-c4cccs4)nc23)nc(N2CCC[C@H]2C(=O)NC)c1 [Example 319, N—((S)-2-(diethylamino)propyl)-2-((S)-2-(methylcarbamoyl)pyrrolidin-1-yl)-6-(5-(thiophen-2-yl)pyrazolo[1,5-a]pyrimidin-3-yl)isonicotinamide] | 3.02 nM
CCN(CC)[C@@H](C)CNC(=O)c1cc(-c2cnn3ccc(-c4cccs4)nc23)nc(N2CCC[C@@H]2C(=O)NC)c1 [Example 320, N—((S)-2-(diethylamino)propyl)-2-((R)-2-(methylcarbamoyl)pyrrolidin-1-yl)-6-(5-(thiophen-2-yl)pyrazolo[1,5-a]pyrimidin-3-yl)isonicotinamide] | 32.8 nM
CC(C)(O)CNc1cc(C(=O)N2CC3CCC(C2)NC3)cc(-c2cnn3ccc(-c4cccs4)nc23)n1 (stereo not drawn) [Example 322, (-3,6-diazabicyclo[3.2.2]nonan-3-yl)(2-((2-hydroxy-2-methylpropyl)amino)-6-(5-(thiophen-2-yl)pyrazolo[1,5-a]pyrimidin-3-yl)pyridin-4-yl)methanone] | 5.01 nM
COCCNc1cc(C(=O)N2CC3CCC(C2)NC3)cc(-c2cnn3ccc(-c4cccs4)nc23)n1 (stereo not drawn) [Example 323, (-3,6-diazabicyclo[3.2.2]nonan-3-yl)(2-((2-methoxyethyl)amino)-6-(5-(thiophen-2-yl)pyrazolo[1,5-a]pyrimidin-3-yl)pyridin-4-yl)methanone] | 3.22 nM
O=C(c1cc(-c2cnn3ccc(-c4cccs4)nc23)nc(N2CCN(C3COC3)CC2)c1)N1CC2CCC(C1)NC2 (stereo not drawn) [Example 324, (-3,6-diazabicyclo[3.2.2]nonan-3-yl)(2-(4-(oxetan-3-yl)piperazin-1-yl)-6-(5-(thiophen-2-yl)pyrazolo[1,5-a]pyrimidin-3-yl)pyridin-4-yl)methanone] | 3.59 nM
COC1CN(c2cc(C(=O)N3CC4CCC(C3)NC4)cc(-c3cnn4ccc(-c5cccs5)nc34)n2)C1 (stereo not drawn) [Example 325, (-3,6-diazabicyclo[3.2.2]nonan-3-yl)(2-(3-methoxyazetidin-1-yl)-6-(5-(thiophen-2-yl)pyrazolo[1,5-a]pyrimidin-3-yl)pyridin-4-yl)methanone] | 2.19 nM
COC1CN(c2cc(C(=O)N3[C@H]4CCNC[C@@H]3CC4)cc(-c3cnn4ccc(-c5cccs5)nc34)n2)C1 [Example 326, ((1S,6R)-3,9-diazabicyclo[4.2.1]nonan-9-yl)(2-(3-methoxyazetidin-1-yl)-6-(5-(thiophen-2-yl)pyrazolo[1,5-a]pyrimidin-3-yl)pyridin-4-yl)methanone] | 3.29 nM
COC1CN(c2cc(C(=O)N3CC[C@H](N)C3)cc(-c3cnn4ccc(-c5ccccc5)nc34)n2)C1 [Example 328, (S)-(3-aminopyrrolidin-1-yl)(2-(3-methoxyazetidin-1-yl)-6-(5-phenylpyrazolo[1,5-a]pyrimidin-3-yl)pyridin-4-yl)methanone] | 91.9 nM
COC1CN(c2cc(C(=O)N3CC4CCC(C3)NC4)cc(-c3cnn4ccc(-c5ccccc5)nc34)n2)C1 (stereo not drawn) [Example 329, (-3,6-diazabicyclo[3.2.2]nonan-3-yl)(2-(3-methoxyazetidin-1-yl)-6-(5-phenylpyrazolo[1,5-a]pyrimidin-3-yl)pyridin-4-yl)methanone] | 14.1 nM
